Literature values, collected in patent publication US10357535B2, “Daptomycin formulations and uses thereof” (priority 2012, dated 2019).

Tests used:
MSSA = conditions: in less than one hour
MRSA = conditions: in less than one hour

For `CCCCCCCCCC(=O)NC(Cc1c[nH]c2ccccc12)C(=O)NC(CC(N)=O)C(=O)NC(CC(=O)O)C(=O)NC1C(=O)NCC(=O)NC(CCCN)C(=O)NC(CC(=O)O)C(=O)NC(C)C(=O)NC(CC(=O)O)C(=O)NCC(=O)NC(CO)C(=O)NC(C(C)CC(=O)O)C(=O)NC(CC(=O)c2ccccc2N)C(=O)OC1C` (centres unmarked) [daptomycin, Daptomycin], the bacteria dead (MSSA) is listed as “greater than 99.9%” and the bacteria dead (MRSA) is listed as “greater than 99.9%”.
